Assay results as given in a melting point compilation (Tetko et al.; mined from patent text by program, amines drawn as free bases though some values may be those of a salt).
Residues, ends and D or L forms follow the SMILES beside them. *: point of attachment. Bz = O=C(c1ccccc1)*

Structure (SMILES) | melting point
COc1ccc(C2=NN(c3ccc(OCCCCBr)cc3)C(=O)[C@@H]3CC=CC[C@H]23)cc1OC | 38 to 43 °C
CCc1cc(CC)c(-c2c(O)c(C)nn(C)c2=O)c(CC)c1Br | 225 to 226 °C
CC(C)(C)OC(=O)Oc1ccc(C(=O)OCc2ccccc2)cc1 | 81 °C
CNC(=O)c1cccc(NC(=O)Cc2cccc(F)c2)c1 | 147 to 148 °C
CC1(C)CON(Cc2ccc(NC(=O)Cc3ccccc3C(=O)O)cc2Cl)C1=O | 194 to 196 °C
CN1CCN(C2CC3C4CCC5CC6OC6CC5(C)C4CCC3(C)C2=O)CC1 (configuration not stated) | 132 to 134 °C
CC#CCOc1cc(-c2ccccc2)ncn1 | 59.6 °C
CCCC1C(=O)N(S(C)(=O)=O)C2CCN(S(C)(=O)=O)C12 (configuration not stated) | 205 to 208 °C
SCc1cn2ccccc2n1 | 168 to 178 °C
CNC(=S)C1=C(O)C(C)(COC)Oc2ccc([N+](=O)[O-])cc21 (configuration not stated) | 139 to 141 °C
CCOC(=O)C1=C(C)NC(CO)=C(C(=O)OCC)C1c1cccs1 (configuration not stated) | 125 to 126 °C
O=C(Nc1ccc2nc(CN3CCCC3)ccc2c1)c1ccc(-c2ccccc2)cc1 | 181 to 183 °C
CCn1cc(-c2ccc(F)c(C)c2)nc1COCc1ccccc1 | 200 °C
CC(C)CC(Sc1ccccc1)c1c(O)cc(-c2ccccc2)oc1=O (configuration not stated) | 154 to 156 °C
O=C(O)c1cn(CCF)c2c(F)c(F)c(F)cc2c1=O | 208 to 210 °C
CC(CC(F)(F)F)C(=O)Nc1cnn(-c2cccnc2)c1 (configuration not stated) | 140 to 145 °C
COc1ccc(CCNCCc2ccc(OC)c(OC)c2)cc1OC | 56 to 58 °C
CCCC1CCC2C3CCc4cc(O)c(C=O)cc4C3CCC12C (configuration not stated) | 122 to 123 °C
CCCCCC(=O)n1c(N)nc2ccccc21 | 200 °C
COc1ccc2ccc(CC3=NOS(=O)N3)cc2c1 (configuration not stated) | 146 to 147 °C
O=C1Nc2c(ccc3ccccc23)SC1c1ccc(Cl)cc1 (configuration not stated) | 236 to 238 °C
Cc1cc2c(cc1-c1cccc(C#CC(=O)O)c1)C(C)(C)CCC2(C)C | 180 to 181 °C
COc1ccc(-c2nc(-c3ccc4c(c3)OCO4)c(-c3ccc4c(c3)OCO4)[nH]2)c(OC)c1 | 95 °C
COc1ccc(C(c2ccccc2)(c2ccc(OC)cc2)C(F)(F)F)cc1 | 120 to 121 °C

Structure (SMILES) | melting point
COC(=O)C(Cc1ccc(O)cc1)NC(=O)C(Cc1ccccc1)NC(=O)c1ccccc1 (stereo not drawn) (Bz-Phe-Tyr-OMe; configuration not given here) | 188 to 190 °C
CCc1cccc(CC)c1NC(=O)c1c(C)oc(C)cc1=O | 83.5 to 84.5 °C
COc1ccc(C2=C(c3ccc(S(N)(=O)=O)cc3)CCC2)cc1F | 170 to 171 °C
COc1cc(OC)nc(-c2c(N)n(S(=O)(=O)C(F)F)c3ccccc23)n1 | 156 to 158 °C
COc1ccc2nc(NC(=O)C(CC3CCCC3)c3ccc(S(=O)(=O)N4CCN(C(C)=O)CC4)cc3)sc2n1 (configuration not stated) | 215 to 217 °C
NC(=O)CN1C(=O)CN2C(=O)CCC12 (configuration not stated) | 182 to 185 °C
CCOC(=O)C(C)NC(=O)N1CCc2cc(S(=O)(=O)N3CCN(c4cccc(Cl)c4)CC3)ccc21 (configuration not stated) | 167 to 168 °C
COC(C)=CC(=O)NC1CCCCCC1 | 120 °C
O=C1CC(=CN2CCOCC2)Oc2c(OCc3ccccc3)cccc21 | 107 to 108 °C
CCN1C(=O)C(C)(C)C(=O)N(C)c2cc(C(=O)O)ccc21 | 296 to 299 °C
CCOC=Nc1c(C#N)cnn1-c1ccc(Cl)c(Cl)c1Cl | 131 to 132 °C
COc1ccc(S(=O)(=O)N2CCc3cccc(-c4cccs4)c32)cc1 | 128 to 129 °C
CCCn1nc2c(N)nc3ccccc3c2c1CC(C)(C)C#N | 248 to 250 °C
CSNC(=O)c1c(Cl)cccc1[Si](C)(C)C | 92 to 94 °C
Cc1ccc(-c2cc(Cl)cc3c2NC(CN)CO3)c(C(F)(F)F)c1 (configuration not stated) | 98 °C
CCOC(=O)c1cc(-c2ccc(Br)cc2)c(=O)n(Cc2ccc(Cl)cc2Cl)c1 | 152 to 154 °C
CCC(=C(c1ccc(O)cc1)c1ccc(O)cc1)c1cccc(/C=C/C(=O)O)c1 | 280 to 281 °C
COc1cn(-c2ccc(-n3cccn3)cc2F)nc(-c2ccnn2-c2cccc(OC(F)(F)F)c2)c1=O | 148 to 150 °C
O=C(Cc1c(-c2ccccc2)c2cc3c(cc2oc1=O)C(=O)OC3)Nc1ccc(F)cc1C(F)(F)F | 253 to 254 °C
O=C(O)CCCCc1cccn2cncc12 | 195 to 197 °C
CC1(CCC(=O)CCCc2cccc([N+](=O)[O-])c2)C(=O)CCC1=O | 81 to 83 °C
C=CCOc1cc([N+](=O)[O-])ccc1Cl | 58 to 59.5 °C
CC(C)(C)OC(=O)N1CCN(S(=O)(=O)c2ccc(N)c(Cl)c2)CC1 | 243 to 244 °C
Cc1c(NC(=O)c2ccc(OC[C@@H]3CCCO3)cc2)ccc2c1cc(CNCC(C)C)n2C | 162 °C

Structure (SMILES) | melting point
NCCNCCCNCCN1C(=O)c2cccc3cc4ccccc4c(c23)C1=O | 150 °C
CC(=O)N1c2ccccc2-c2c([N+](=O)[O-])cnn2C1c1ccccc1 (configuration not stated) | 156 to 157 °C
Cc1cc(-c2ccc(C(F)(F)F)cc2)nc(-n2cnc(-c3cccc(S(N)(=O)=O)c3)c2)n1 | 186 °C
CCCC(=O)c1nc(CCC)[nH]c1C | 94 to 95 °C
CCOC(=O)c1cc2c(Cl)cccc2n1CC#N | 143 to 144 °C
O=C(Cn1cnc2ccccc21)Nc1ccc(-n2nc(C(F)(F)F)cc2C2CC2)cc1 | 178 to 184 °C
COC(=O)COC(=O)C(Cc1cc(=O)[nH]c2ccccc12)NC(=O)c1ccc(Cl)cc1 (configuration not stated) | 202 to 204 °C
COP(=O)(OC)C(CCc1cc(C)nc2c(C#N)c(C)nn12)P(=O)(OC)OC | 100 to 101 °C
Fc1ccc(-c2cc3ncnc(Nc4ccc5[nH]ccc5c4)c3s2)cc1Cl | 175 to 183 °C
C=CCOc1cc(N2C(=O)c3ccccc3C2=O)c(F)cc1Cl | 148 to 150 °C
CCOC(=O)CCN(c1ccccc1)S(=O)(=O)c1ccc2c(c1)nc(CNc1ccc(C#N)cc1)n2C | 188 to 191 °C
CCc1c2nc(-c3cc(S(C)(=O)=O)ccc3OCC(C)C)[nH]c(=O)c2nn1C1CCN(C(C)C)CC1 | 273 to 275 °C
C[C@H]1CN(C(c2ccccc2)(c2ccccc2)c2ccccc2)CCN1c1ccc(C(F)(F)F)c(Cl)n1 | 210 °C
CC(C)(OC(=O)c1ccccc1)c1nccc2ccccc12 | 116 to 119 °C
CCOCc1nc2c(N)nc(C)c(C)c2n1C1(OC)CCCCC1 | 172 to 173 °C
CC(=O)COc1ccn2nc(-c3ccccc3)c(-c3ccc(=O)n(C(C)C)n3)c2c1 | 172 to 174 °C
CN(C)Cc1ccc(CN)cc1 | 38 to 39 °C
CCOC(OCC)c1nc(N)nc(N)c1-c1cccc(Cl)c1Cl | 214 to 217 °C
CC(=O)Oc1ccc2cc(-c3ccc(C(=O)O)cc3)ccc2c1 | 254 to 256 °C
O=Cc1cc(O)c2c(c1O)CCCC2 | 145 °C
CC1(C)NC(C(=O)O)C(C)(C)S1 (configuration not stated) | 206 to 208 °C
Cc1cc2c(c3ccc(=O)[nH]c13)OCC2C=O (configuration not stated) | 230 to 232 °C
FC(F)(F)c1cc(Nc2nc3ccccc3o2)cc(C(F)(F)F)c1 | 178 to 180 °C
CCCNC(=O)N(C)Cc1cccc2c1CN(C1CCC(=O)NC1=O)C2=O (configuration not stated) | 220 to 222 °C
